ChEMBL document CHEMBL5046282, “Discovery of Brain-Penetrant Glucosylceramide Synthase Inhibitors with a Novel Pharmacophore” (J Med Chem, 2022)
In brackets after ≈: the same amount, converted by molar mass.

How the values were obtained:
[1] = 1-Octanol/aqueous buffer partition coefficient, logD of the compound at pH 7.4 by chromatographic method; type: physicochemical
[2] = Kinetic solubility of the compound in JP2 fluid at pH 6.8 by precipitation method; type: physicochemical; details: read-out: Kinetic_solubility
[3] = Intrinsic clearance in mouse liver microsomes at 1 uM in presence of NADPH generating system assessed per mg protein by LC-MS/MS analysis; type: ADME, Microsome; details: read-out: CLH
hERG [4] = target: T1, hERG (Homo sapiens, UniProt Q12809); assay: Inhibition of hERG expressed in CHO-K1 cells at 10 uM incubated for 5 mins by whole cell-automated voltage clamp analysis; type: toxicity, cell-based; details: CHO-K1 cells expressing hERG
[5] = Efflux ratio of apparent permeability from basolateral to apical side over apical to basolateral side in dog MDCK-MDR1 cells at 1 uM measured after 1 hr by LC-MS/MS analysis; type: ADME, cell-based, Canis lupus familiaris
[6] = target: T2, Ceramide glucosyltransferase (Mus musculus, UniProt O88693); assay: Inhibition of mouse GCS using C8-ceramide and UDP-glucose as substrate incubated for 1 hr by RapidFire mass spectrometry
T2 sequence (O88693 whole entry): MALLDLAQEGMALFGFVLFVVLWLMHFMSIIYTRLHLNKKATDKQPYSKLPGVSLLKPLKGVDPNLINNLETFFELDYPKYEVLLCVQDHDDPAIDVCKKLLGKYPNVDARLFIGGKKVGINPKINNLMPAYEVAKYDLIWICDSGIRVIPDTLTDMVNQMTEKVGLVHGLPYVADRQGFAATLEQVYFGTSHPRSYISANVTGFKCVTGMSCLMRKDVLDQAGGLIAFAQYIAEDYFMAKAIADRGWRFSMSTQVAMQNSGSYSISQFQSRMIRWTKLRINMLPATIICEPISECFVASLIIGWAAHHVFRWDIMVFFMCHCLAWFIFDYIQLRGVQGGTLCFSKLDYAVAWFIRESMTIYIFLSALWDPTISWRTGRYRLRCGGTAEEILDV

CYP1A2 = target: T3, CYP1A2 (Homo sapiens, UniProt P05177); assay: Inhibition of CYP1A2 in human liver microsomes using tacrine as substrate at 10 uM in presence of NADPH generating system incubated for 10 mins; type: ADME; details: probe tacrine
T3 sequence (P05177 whole entry): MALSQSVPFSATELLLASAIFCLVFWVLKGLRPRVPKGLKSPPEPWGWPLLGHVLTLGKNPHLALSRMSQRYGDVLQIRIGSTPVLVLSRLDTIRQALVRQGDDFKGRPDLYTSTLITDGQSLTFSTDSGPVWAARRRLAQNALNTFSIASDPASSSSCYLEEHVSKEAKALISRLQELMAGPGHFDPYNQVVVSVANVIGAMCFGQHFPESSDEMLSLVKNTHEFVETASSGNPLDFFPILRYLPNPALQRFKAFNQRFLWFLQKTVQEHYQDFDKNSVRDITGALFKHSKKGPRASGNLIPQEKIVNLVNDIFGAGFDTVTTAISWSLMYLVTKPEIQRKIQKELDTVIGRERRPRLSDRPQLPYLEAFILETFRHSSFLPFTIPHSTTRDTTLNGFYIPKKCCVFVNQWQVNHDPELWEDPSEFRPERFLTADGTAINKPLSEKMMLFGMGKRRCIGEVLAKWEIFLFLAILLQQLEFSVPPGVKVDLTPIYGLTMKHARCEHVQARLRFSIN

CYP2C8 = target: T4, CYP2C8 (Homo sapiens, UniProt P10632); assay: Inhibition of CYP2C8 in human liver microsomes using paclitaxel as substrate at 10 uM in presence of NADPH generating system incubated for 10 mins; type: ADME; details: probe paclitaxel
T4 sequence (P10632 whole entry): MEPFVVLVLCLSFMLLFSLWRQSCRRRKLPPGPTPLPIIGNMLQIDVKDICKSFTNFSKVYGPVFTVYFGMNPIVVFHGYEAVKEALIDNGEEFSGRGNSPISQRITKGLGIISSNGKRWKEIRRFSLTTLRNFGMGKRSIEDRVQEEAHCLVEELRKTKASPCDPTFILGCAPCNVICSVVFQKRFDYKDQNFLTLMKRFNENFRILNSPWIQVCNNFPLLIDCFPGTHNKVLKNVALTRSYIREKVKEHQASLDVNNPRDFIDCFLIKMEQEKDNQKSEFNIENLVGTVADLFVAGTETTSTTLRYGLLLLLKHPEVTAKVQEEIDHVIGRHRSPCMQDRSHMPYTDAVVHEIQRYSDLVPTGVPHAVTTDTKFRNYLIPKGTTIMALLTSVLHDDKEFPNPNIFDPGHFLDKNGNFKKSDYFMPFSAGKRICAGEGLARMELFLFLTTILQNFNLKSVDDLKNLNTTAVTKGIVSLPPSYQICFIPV

CYP2C9 = CYP2C9 (Homo sapiens, UniProt P11712); assay: Inhibition of CYP2C9 in human liver microsomes using tolbutamide as substrate at 10 uM in presence of NADPH generating system incubated for 10 mins; type: ADME; details: probe tolbutamide
CYP2D6 = CYP2D6 (Homo sapiens, UniProt P10635); assay: Inhibition of CYP2D6 in human liver microsomes using dextromethorphan as substrate at 10 uM in presence of NADPH generating system incubated for 10 mins; type: ADME; details: probe dextromethorphan
CYP3A4 = CYP3A4 (Homo sapiens, UniProt P08684); assay: Inhibition of CYP3A4 in human liver microsomes using midazolam as substrate at 10 uM in presence of NADPH generating system incubated for 10 mins; type: ADME; details: probe midazolam
[7] = Plasma clearance in non-fasted ICR mouse at 0.5 mg/kg, iv by LC-MS/MS analysis; type: ADME, organism-based
[8] = Volume of distribution at steady state in non-fasted ICR mouse at 0.5 mg/kg, iv by LC-MS/MS analysis; type: ADME, organism-based; details: in vivo, read-out: Vdss
[9] = MRT in non-fasted ICR mouse at 0.5 mg/kg, iv by LC-MS/MS analysis; type: ADME, organism-based; details: in vivo
[10] = Cmax in non-fasted ICR mouse at 5 mg/kg, po by LC-MS/MS analysis; type: ADME, organism-based; parameters: route oral, dose 5 mg/kg; details: in vivo
[11] = AUC in non-fasted ICR mouse at 5 mg/kg, po by LC-MS/MS analysis; type: ADME, organism-based; parameters: dose 5 mg/kg; details: in vivo
[12] = MRT in non-fasted ICR mouse at 5 mg/kg, po by LC-MS/MS analysis; type: ADME, organism-based; details: in vivo
[13] = Ratio of unbound drug concentration in brain to plasma of non-fasted ICR mouse at 30 mg/kg, po measured after 1 hr by LC-MS/MS analysis; type: ADME, organism-based; details: read-out: K(p,uu,brain)
[14] = Unbound drug concentration in brain of non-fasted ICR mouse at 30 mg/kg, po measured after 1 hr by LC-MS/MS analysis; type: ADME, organism-based; details: in vivo
hERG [15] = target: T1, hERG; assay: Inhibition of hERG expressed in CHO-K1 cells at 30 uM by automated whole cell patch clamp assay; type: toxicity, cell-based; details: CHO-K1 cells expressing hERG
Cav1.2 = Cav1.2 (Homo sapiens, UniProt Q13936); assay: Inhibition of human Cav1.2 expressed in HEK293 cells at 30 uM by automated electrophysiology QPatch HT assay; type: toxicity, cell-based; details: HEK293 cells expressing Cav1.2
Nav1.5 = Nav1.5 (Homo sapiens, UniProt Q14524); assay: Inhibition of human Nav1.5 at 30 uM by automated whole cell patch clamp assay; type: toxicity
[16] = Cardiotoxicity in human iPSC-derived cardiomyocytes assessed as induction of proarrhythmic activity at 30 uM by Fluo-4 dye based fluorescence analysis; type: toxicity; details: cardiac muscle cell
[17] = Toxicity in Sprague-Dawley rat assessed as reduction in body weight at 30 to 100 mg/kg, po administered once daily for 3 days; type: organism-based; details: in vivo, 72 h, dose 30-100 mg/kg, time 3 day
[18] = target: Sodium-dependent serotonin transporter (Homo sapiens, UniProt P31645); assay: Inhibition of human SERT; type: toxicity
[19] = target: Ceramide glucosyltransferase (Homo sapiens, UniProt Q16739); assay: Inhibition of GCS in GBA mutant human fibroblasts assessed as reduction in glucosylceramide level incubated for 4 days by RapdiFire-MS/MS analysis; type: cell-based; details: fibroblast
[20] = Oral bioavailability in non-fasted ICR mouse at 5 mg/kg by LC-MS/MS analysis; type: ADME, organism-based; details: in vivo
[21] = Toxicity in C57BL/6J mouse assessed as change in body weight at 30 to 100 mg/kg, po; type: organism-based; details: in vivo, dose 30-100 mg/kg
[22] = Cardiotoxicity in human iPSC-derived cardiomyocytes assessed as minimum effective concentration required for intracellular calcium transients-mediated proarrhythmic activity by Fluo-4 dye based fluorescence analysis; type: toxicity; details: cardiac muscle cell

T1 sequence (Q12809 whole entry): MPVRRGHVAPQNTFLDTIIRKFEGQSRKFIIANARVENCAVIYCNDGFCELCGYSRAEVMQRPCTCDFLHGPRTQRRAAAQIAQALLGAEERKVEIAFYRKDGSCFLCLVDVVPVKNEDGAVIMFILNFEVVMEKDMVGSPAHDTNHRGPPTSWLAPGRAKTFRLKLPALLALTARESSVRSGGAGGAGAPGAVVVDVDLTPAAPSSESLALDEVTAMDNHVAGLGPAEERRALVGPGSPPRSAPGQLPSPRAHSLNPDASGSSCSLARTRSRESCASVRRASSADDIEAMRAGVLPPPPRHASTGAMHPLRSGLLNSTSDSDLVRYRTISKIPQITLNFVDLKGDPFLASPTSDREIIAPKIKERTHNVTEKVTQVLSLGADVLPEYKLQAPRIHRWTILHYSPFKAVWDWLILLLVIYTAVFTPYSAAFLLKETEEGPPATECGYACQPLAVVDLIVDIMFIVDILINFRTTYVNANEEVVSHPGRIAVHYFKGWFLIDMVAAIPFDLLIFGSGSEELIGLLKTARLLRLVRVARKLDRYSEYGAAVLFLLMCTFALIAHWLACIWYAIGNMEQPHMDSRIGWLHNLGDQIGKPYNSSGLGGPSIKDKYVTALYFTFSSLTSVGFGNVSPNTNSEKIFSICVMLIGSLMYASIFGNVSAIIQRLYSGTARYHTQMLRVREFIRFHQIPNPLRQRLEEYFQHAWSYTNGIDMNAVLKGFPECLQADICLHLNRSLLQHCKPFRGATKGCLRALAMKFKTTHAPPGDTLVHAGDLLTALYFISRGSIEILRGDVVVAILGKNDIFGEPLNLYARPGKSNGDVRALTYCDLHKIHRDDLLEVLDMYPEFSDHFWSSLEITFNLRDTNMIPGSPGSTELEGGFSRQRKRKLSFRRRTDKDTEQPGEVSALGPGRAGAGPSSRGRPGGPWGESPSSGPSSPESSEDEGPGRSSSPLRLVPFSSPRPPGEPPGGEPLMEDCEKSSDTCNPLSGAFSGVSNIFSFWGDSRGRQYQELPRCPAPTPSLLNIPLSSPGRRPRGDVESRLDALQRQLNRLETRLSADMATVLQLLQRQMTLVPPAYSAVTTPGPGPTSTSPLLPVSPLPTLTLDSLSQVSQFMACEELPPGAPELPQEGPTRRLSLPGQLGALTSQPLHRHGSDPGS
Sequence of Ceramide glucosyltransferase (Homo sapiens, UniProt Q16739) (Q16739 whole entry, looked up, change not shown): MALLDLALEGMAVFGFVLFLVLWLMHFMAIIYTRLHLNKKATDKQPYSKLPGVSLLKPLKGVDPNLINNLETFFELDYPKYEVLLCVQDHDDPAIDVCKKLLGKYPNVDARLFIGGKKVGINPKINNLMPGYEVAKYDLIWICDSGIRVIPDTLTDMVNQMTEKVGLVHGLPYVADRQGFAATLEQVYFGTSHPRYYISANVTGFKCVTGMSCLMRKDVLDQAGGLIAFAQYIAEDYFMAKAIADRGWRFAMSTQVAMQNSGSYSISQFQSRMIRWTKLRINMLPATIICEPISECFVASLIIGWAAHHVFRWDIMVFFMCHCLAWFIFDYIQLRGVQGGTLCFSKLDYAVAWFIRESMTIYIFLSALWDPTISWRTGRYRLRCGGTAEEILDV
Sequence of CYP2C9 (P11712 whole entry): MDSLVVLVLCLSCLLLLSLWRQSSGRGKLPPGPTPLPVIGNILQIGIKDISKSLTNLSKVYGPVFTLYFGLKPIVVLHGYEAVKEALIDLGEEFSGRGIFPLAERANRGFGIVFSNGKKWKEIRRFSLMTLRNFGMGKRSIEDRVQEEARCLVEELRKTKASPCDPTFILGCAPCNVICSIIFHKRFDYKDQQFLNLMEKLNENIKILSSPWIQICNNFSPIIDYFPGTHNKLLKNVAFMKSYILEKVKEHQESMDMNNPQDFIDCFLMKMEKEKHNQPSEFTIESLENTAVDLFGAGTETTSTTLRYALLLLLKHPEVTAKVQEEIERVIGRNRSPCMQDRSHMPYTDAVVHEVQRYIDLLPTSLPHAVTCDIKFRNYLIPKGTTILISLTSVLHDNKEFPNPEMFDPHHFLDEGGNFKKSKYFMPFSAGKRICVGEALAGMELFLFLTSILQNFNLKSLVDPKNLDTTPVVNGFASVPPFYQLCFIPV
Sequence of Nav1.5 (Q14524 whole entry): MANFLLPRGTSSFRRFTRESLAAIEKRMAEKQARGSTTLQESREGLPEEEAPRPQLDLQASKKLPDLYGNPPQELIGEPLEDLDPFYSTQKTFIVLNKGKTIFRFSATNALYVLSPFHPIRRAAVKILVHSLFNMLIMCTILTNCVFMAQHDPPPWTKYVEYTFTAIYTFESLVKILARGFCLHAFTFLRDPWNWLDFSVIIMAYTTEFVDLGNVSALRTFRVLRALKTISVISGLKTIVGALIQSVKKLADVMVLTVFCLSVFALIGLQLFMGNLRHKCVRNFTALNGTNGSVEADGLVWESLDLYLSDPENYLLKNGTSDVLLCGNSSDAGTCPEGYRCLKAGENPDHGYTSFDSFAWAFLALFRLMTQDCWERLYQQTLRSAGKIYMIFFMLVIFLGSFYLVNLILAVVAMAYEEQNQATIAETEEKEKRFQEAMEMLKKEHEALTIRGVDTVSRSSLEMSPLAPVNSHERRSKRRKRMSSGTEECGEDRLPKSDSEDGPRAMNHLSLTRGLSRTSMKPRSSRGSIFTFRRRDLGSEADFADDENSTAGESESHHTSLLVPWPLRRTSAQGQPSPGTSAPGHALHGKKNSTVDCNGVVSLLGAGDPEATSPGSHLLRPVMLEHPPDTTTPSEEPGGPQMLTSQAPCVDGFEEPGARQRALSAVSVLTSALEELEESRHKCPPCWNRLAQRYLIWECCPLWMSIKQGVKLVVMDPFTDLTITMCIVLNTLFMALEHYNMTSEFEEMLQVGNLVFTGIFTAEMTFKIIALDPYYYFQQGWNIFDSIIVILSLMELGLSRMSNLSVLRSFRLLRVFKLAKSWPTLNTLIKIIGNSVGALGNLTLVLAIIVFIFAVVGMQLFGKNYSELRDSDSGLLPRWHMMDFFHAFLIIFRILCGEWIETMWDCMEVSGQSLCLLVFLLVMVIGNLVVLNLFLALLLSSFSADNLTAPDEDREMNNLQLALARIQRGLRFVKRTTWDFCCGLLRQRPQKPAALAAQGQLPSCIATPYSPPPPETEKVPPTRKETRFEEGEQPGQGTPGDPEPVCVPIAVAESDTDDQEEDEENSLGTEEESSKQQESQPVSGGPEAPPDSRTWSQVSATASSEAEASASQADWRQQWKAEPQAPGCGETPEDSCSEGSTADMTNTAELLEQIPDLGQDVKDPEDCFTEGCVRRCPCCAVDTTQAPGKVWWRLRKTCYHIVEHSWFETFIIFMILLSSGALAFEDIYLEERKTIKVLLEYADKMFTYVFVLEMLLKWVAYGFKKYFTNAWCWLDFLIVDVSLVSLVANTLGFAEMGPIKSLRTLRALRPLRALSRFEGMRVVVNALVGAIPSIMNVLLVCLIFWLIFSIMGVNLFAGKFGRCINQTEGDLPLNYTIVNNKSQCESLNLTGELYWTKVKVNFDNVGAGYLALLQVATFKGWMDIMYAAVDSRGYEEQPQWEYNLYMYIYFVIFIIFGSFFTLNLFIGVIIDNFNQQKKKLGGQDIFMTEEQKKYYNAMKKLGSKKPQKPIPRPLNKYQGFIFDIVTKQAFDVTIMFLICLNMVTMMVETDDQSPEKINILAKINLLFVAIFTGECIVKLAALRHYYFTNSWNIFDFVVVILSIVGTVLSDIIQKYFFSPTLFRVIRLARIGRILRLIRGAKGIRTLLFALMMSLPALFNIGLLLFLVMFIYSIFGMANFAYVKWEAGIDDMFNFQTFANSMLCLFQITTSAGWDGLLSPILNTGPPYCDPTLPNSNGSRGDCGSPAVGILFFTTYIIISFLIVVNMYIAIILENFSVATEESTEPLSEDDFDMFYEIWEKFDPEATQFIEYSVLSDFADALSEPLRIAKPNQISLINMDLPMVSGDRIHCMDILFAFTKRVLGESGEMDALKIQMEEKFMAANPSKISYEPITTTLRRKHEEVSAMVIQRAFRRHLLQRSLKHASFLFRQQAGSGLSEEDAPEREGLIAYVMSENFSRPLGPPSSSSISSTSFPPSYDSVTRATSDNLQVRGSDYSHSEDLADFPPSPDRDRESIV
Sequence of CYP3A4 (P08684 whole entry): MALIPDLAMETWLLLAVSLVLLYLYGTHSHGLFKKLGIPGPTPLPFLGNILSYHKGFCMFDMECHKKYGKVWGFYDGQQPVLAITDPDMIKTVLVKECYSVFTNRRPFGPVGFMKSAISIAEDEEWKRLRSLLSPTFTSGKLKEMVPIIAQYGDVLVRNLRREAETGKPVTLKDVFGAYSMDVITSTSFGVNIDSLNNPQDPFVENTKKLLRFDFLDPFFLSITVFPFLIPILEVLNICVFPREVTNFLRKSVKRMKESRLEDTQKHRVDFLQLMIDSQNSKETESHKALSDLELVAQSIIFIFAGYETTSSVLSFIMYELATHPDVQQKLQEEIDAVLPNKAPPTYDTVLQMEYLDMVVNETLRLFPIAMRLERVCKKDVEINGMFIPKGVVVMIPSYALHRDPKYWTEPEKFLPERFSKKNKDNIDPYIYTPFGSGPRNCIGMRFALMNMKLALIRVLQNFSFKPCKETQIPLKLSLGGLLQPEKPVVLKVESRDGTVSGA
Sequence of CYP2D6 (P10635 whole entry): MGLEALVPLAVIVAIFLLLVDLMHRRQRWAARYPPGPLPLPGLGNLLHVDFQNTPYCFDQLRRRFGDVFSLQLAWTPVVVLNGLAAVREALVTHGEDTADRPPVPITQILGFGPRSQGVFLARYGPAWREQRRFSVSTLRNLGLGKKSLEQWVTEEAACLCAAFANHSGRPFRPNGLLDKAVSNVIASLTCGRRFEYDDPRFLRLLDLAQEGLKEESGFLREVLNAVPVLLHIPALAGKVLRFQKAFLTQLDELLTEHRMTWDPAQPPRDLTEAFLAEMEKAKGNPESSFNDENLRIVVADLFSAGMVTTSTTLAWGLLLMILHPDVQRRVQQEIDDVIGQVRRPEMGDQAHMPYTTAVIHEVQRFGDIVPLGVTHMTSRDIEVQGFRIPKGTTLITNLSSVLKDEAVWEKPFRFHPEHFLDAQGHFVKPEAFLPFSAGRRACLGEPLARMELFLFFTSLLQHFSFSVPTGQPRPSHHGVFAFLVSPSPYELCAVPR

CC(C)(O)c1ccc(N2Cc3c(ccnc3-c3ccc(F)cc3OCC(F)(F)F)C2=O)cc1
chromatographic logD [1]: 2.48
solubility kinetic [2]: 5.2 µg/mL (≈ 11.3 µM)
microsomal CLint at 1 µM [3]: 6 µL/min/mg
inhibition at 5 min, 10 µM (hERG [4]): 13.8%
efflux ratio at 1 h, 1 µM [5]: 9.6
IC50 [6]: 51 nM
inhibition at 10 min, 10 µM (CYP1A2): 5.8%
inhibition at 10 min, 10 µM (CYP2C8): 22.4%
inhibition at 10 min, 10 µM (CYP2C9): 37.9%
inhibition at 10 min, 10 µM (CYP2D6): 10.9%
inhibition at 10 min, 10 µM (CYP3A4): 15.5%
clearance [7]: 5.23 mL/min/kg
Vd [8]: 1.08 L/kg
MRT [9]: 3.44 h
Cmax [10]: 1180 ng/mL
AUC [11]: 10700 ng·h/mL
MRT [12]: 7.14 h
Kp uu at 1 h [13]: 0.11
Drug uptake(free) [14]: 0.24 µM
inhibition at 30 µM (hERG [15]): 42%
inhibition at 30 µM (Cav1.2): 2.4%
inhibition at 30 µM (Nav1.5): 7.1%
Activity [16]: Non-Toxic
Activity [17]: Toxic
IC50 [18]: 310 nM
EC50 [19]: 7.6 nM
bioavailability [20]: 67%
Activity [21]: Non-Toxic
MEC [22]: > 30 µM
